From patent publication US12195588B2, “Polyether derivatives, uses, and methods of making the same” (P2 Science, Inc., priority 2017, dated 2025)
Read-outs that look alike come from different tables or passages of the source.

Test system: female Yellow Fever mosquitos (Aedes aegypti)
Assay type: in vivo
Description: Mosquitos are exposed to the treatments applied to 3-cm diameter collagen membranes placed over warmed, blood-filled wells in a multi-well plate. The wells are pre-warmed to 96-100° F., and then citrated whole blood with ATP is poured into each well to completely fill. The membrane is applied and secured using vacuum grease. To each membrane 25 microliters of the test solution is applied, and the solution is allowed to dry. The plate is then placed into a plastic box enclosure having 250 adult female mosquitos. The number of instances of a mosquito probing the membrane is recorded during a 20-minute period. The entire procedure is repeated until five replicates are complete. Treatment positions in the plates are rotated between each replicate to eliminate any positional bias. Fresh blood and mosquitoes are used in each replicate. Percent repellency is calculated by comparison to a negative control membrane treated only with water.
This is compared to a solution of DEET in IPA at 20% by weight as a control. The procedure is as described for Example 8.

[1] = Example 8, 25 microliters on membrane, 20-minute period, five replicates, DEET as 20% isopropanol solution
[2] = Example 8, by comparison to water-treated membrane, DEET as 20% isopropanol solution
[3] = Example 10, 20% by weight in IPA

Row | Compound | Mosquito Probes [1] | % Repellency [2] [%] | % Repellency [3] [%] | Mosquito Probes [3]
1 | Citronellol dimer [Sample A] | 0.4 | 99.1 |  | 
2 | citronellol dimer acetate [Sample B] | 0.6 | 98.8 |  | 
3 | CCN(CC)C(=O)c1cccc(C)c1 [DEET, di-ethyl-meta-toluamide] | 0 | 100 | 100 | 0
